IC50 data for six molecules are collected here from US20170119776A1, “CHIRAL 2,5-DISUBSTITUTED CYCLOPENTANECARBOXYLIC ACID DERIVATIVES AND USE THEREOF” (BAYER PHARMA AKTIENGESELLSCHAFT, priority 2014, published 2017).

Molecules are shown by their SMILES. Where only a bound is given, the exact number is not on record here.

What all share (assay type): biochemical
In test [1] the target is T1, MMP-7 of the mouse (Mus musculus, UniProt Q10738).
T1 construct: purchased R&D Systems 2967-MP
T1 sequence (Q10738 95-264): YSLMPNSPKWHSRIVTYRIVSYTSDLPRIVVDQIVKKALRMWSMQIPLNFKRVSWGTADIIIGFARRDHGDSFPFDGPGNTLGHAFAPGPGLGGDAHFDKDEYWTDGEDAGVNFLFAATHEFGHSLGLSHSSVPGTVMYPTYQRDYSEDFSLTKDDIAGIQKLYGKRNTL
Put plainly: In vitro MMP-7 inhibition test of the mouse. The text has this: (§1) The activity strength of the compounds according to the invention towards other MMPs (and therefore their selectivity) is likewise ascertained in in vitro inhibition tests. The MMP-mediated amidolytic cleavage of a suitable peptide substrate also leads here to a fluorescent light increase. The signal intensity of the fluorescent light is directly proportional to the enzyme activity. The active concentration of a test compound at which half of the enzyme is inhibited (50% signal intensity of the fluorescent light) is given as IC50 value.
(§2) Recombinant MMP-7 of the mouse (R&D Systems, 2967-MP) is chemically activated in accordance with the manufacturer's instructions using APMA. 1 μl of the test compound to be analysed (as a solution in DMSO, suitable concentrations e.g. 1 nM to 30 μM) is pipetted into 24 μl of activated enzyme (final concentration e.g. 0.5 nM) in reaction buffer (50 mM Tris/HCl pH 7.5, 10 mM CaCl2, 150 mM NaCl, 0.05% Brij®-35) in a white 384-hole microtiter plate (MTP). The enzymatic reaction is started by adding the intramolecularly quenched substrate Mca-Lys-Pro-Leu-Gly-Leu-Dpa(Dnp)-Ala-Arg-NH2 (final concentration e.g. 5 μM; R&D Systems, ES-010), such that a total test volume of 50 μl results. The progress of the MMP-7 reaction is measured by measuring the fluorescence intensity (excitation 320 nm, emission 410 nm) over a suitable period (e.g. over 120 min at a temperature of 32° C.).
(§3) Tables 3A and 3B below give the IC50 values from these tests for the inhibition of rodent MMPs for representative embodiment examples of the present invention and also for two structurally related comparison compounds from the prior art (as racemate and separated enantiomer)→(in part as average values from several independent individual determinations and rounded to two significant places). The IC50 values were determined for racemates and enantiomers from differently generated DMSO stock solutions. Whereas an automatically created DMSO stock solution from the internal substance logistics was used for racemates by means of a standard method, in the case of enantiomers, in each case a freshly produced, manually prepared DMSO stock solution was used for a more precise direct comparison of the enantiomers with one another.

Test [2] has as its target T2, MMP-12 of the rat (Rattus norvegicus, UniProt Q63341).
T2 construct: MMP-12 of the rat (Uniprot NP_446415.1; construct L96-V277); made in house; host or cells: E. coli (BL21), pDEco7 vector
The test is described as follows: In vitro MMP-12 inhibition test of the rat.
From the text: as §1
MMP-12 of the rat (Uniprot NP_446415.1; construct L96-V277) is expressed with an additional N-terminal His-Tag and a consecutive TEV cleavage sequence by means of a pDEco7 vector in E. coli (BL21). The thus recombinantly expressed protein forms an intracellular insoluble protein compartment (so-called inclusion body). This is solubilized after separation and intensive washing under denaturing conditions. For this, the inclusion body pellet fraction from a 250 ml E. coli culture is taken up in a volume of 120 ml of buffer A (50 mM Tris pH 7.4, 100 mM NaCl, 0.03 mM ZnCl2, 10 mM CaCl2, 8 M urea). The soluble protein is renatured by in each case dialysing 60 ml of the sample several times at 4-8° C. against buffer B (50 mM Tris pH 7.4, 100 mM NaCl, 0.03 mM ZnCl2, 10 mM CaCl2). After the dialysis, the sample is centrifuged (25 000×g). The folded-back protein is obtained in the supernatant with a yield of 3.7 mg per 250 ml E. coli culture. The thus obtained protein is enzymatically active without further purification operations or protease-mediated cleavage processes.
as §2, with “1” for “Recombinant MMP-7 of the mouse (R&D Systems, 2967-MP) is chemically activated in accordance with the manufacturer's instructions using APMA. 1”, “MMP-12 protein” for “activated enzyme”, “1” for “0.5”, “Mca-Pro-Leu-Gly-Leu-Dpa(Dnp)-Ala-Arg-NH2” for “Mca-Lys-Pro-Leu-Gly-Leu-Dpa(Dnp)-Ala-Arg-NH2”, “ES-001),” for “ES-010),”, “MMP-12” for “MMP-7”
as §3

Test [3] has as its target T3, MMP-9 of the mouse (Mus musculus, UniProt P41245).
T3 construct: purchased R&D Systems 909-MP
Put plainly: In vitro MMP-9 inhibition test of the mouse.
From the text: as §1
as §2, with “MMP-9” for “MMP-7”, “909-MP)” for “2967-MP)”, “0.1” for “0.5”, “Mca-Pro-Leu-Gly-Leu-Dpa(Dnp)-Ala-Arg-NH2” for “Mca-Lys-Pro-Leu-Gly-Leu-Dpa(Dnp)-Ala-Arg-NH2”, “ES-001),” for “ES-010),”
as §3

T2 sequence (Q63341 96-277): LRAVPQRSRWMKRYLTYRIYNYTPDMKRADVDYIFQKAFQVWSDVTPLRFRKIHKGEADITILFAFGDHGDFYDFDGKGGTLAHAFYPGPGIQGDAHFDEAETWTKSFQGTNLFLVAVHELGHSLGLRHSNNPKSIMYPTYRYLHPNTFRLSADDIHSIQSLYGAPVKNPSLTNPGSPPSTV
T3 sequence (P41245 108-730): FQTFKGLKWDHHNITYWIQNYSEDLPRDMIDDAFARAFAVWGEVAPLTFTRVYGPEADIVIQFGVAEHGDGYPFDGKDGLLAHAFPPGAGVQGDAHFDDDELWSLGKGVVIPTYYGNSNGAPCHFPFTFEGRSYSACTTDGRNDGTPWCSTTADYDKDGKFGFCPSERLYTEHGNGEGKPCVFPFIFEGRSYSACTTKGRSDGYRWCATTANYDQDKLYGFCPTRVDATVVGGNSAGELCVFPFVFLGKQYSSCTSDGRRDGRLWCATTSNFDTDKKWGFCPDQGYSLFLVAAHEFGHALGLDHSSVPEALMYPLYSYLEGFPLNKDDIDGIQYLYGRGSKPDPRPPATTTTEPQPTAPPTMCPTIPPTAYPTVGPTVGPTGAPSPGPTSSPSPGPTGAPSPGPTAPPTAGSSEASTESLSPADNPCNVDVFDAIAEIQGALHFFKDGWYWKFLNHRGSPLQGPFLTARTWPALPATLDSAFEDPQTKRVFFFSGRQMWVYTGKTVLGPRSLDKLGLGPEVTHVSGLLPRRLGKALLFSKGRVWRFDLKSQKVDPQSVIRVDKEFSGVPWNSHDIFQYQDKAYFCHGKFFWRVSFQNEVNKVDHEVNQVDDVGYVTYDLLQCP

As to `O=C(O)[C@H]1[C@H](Cn2nnc3ccccc3c2=O)CC[C@@H]1C(=O)c1ccc(-c2ccc(Cl)cc2)cc1` (racemic) [Comparative Example A-1, (1RS,2RS,5SR)-2-[(4′-chlorobiphenyl-4-yl)carbonyl]-5-[(4-oxo-1,2,3-benzotriazin-3(4H)-yl)methyl]cyclopentanecarboxylic acid (racemate)], the IC50 in test [1] is 0.015 µM; in test [2], < 0.00061 µM; in test [3], 0.0049 µM.
On the same counts, the results for `CCCCCOc1ccc(C(=O)CC(CCn2nnc3ccccc3c2=O)C(=O)O)cc1` (single isomer, unassigned; enantiomer 1) [Comparative Example B-2, (+)-4-Oxo-2-[2-(4-oxo-1,2,3-benzotriazin-3(4H)-yl)ethyl]-4-[4-(pentyloxy)phenyl]butanoic acid (enantiomer 1)] are 0.525 µM, 0.0245 µM and 0.905 µM.
With `CCCCCOc1ccc(C(=O)CC(CCn2nnc3ccccc3c2=O)C(=O)O)cc1` (racemic) [Comparative Example B-1, (+/−)-4-Oxo-2-[2-(4-oxo-1,2,3-benzotriazin-3(4H)-yl)ethyl]-4-[4-(pentyloxy)phenyl]butanoic acid (racemate)], the IC50 is 1.4 µM in test [1], 0.0293 µM in test [2] and 2.7 µM in test [3].
For `O=C(O)[C@@H]1[C@@H](Cn2nnc3ccccc3c2=O)CC[C@H]1C(=O)c1ccc(-c2ccc(Cl)cc2)cc1` (single isomer, unassigned; enantiomer 2) [Comparative Example A-3, (1RS,2RS,5SR)-2-[(4′-Chlorobiphenyl-4-yl)carbonyl]-5-[(4-oxo-1,2,3-benzotriazin-3(4H)-yl)methyl]cyclopentanecarboxylic acid (enantiomer 2)] the same measures were 0.0062 µM, < 0.00061 µM and 0.0015 µM.
As to `O=C(O)[C@H]1[C@H](Cn2nnc3ccccc3c2=O)CC[C@@H]1C(=O)c1ccc(OCc2ccccc2)cc1` [Example 2, (+)-(1S,2S,5R)-2-[4-(Benzyloxy)benzoyl]-5-[(4-oxo-1,2,3-benzotriazin-3(4H)-yl)methyl]cyclopentanecarboxylic acid], the IC50 in test [1] was 0.022 µM; in test [2], < 0.00061 µM; in test [3], 0.0275 µM.
With `O=C(O)[C@H]1[C@H](Cn2nnc3ccccc3c2=O)CC[C@@H]1C(=O)c1ccc(OCc2ccccc2)cc1` (racemic) [Example 1, (+/−)-(1RS,2RS,5SR)-2-[4-(Benzyloxy)benzoyl]-5-[(4-oxo-1,2,3-benzotriazin-3(4H)-yl)methyl]cyclopentanecarboxylic acid (racemate)], the IC50 in test [1] was 0.046 µM; in test [2], < 0.001 µM; in test [3] it was 0.071 µM.
